For data set [1], the system named is human articular chondrocytes. Briefly: Proteoglycan synthesis by human articular chondrocytes (35S-sulfate incorporation). It is filed as cell-based. To be noted: cultured for 13 days. How it is done:
After purchase of cryopreserved human articular chondrocytes (Lot 2867, Cell Applications Inc.), the cells were thawed in a 37° C. water bath, 15 mL of Basal Medium supplemented with 10% Growth Supplement (Growth Medium, Cell Applications Inc.) was placed in a T75 culture flask (CORNING, Corning Japan K. K.) to culture the cells, and exchanged the next day with 15 mL of Growth Medium; and the cells were cultured for three days. Growth Medium was then removed, and HBSS (Cell Applications Inc.) was used to wash the chondrocyte layer. With addition of 1 mL of trypsin/EDTA solution (Cell Applications Inc.), this was left to stand at room temperature for approximately five minutes, and chondrocytes were detached from the flask. With 10 mL of Neutralization solution (Cell Applications Inc.) added, Bulker-Turk hemocytometer was used to determine the cell count, and the cells were then transferred to a 15-mL test tube for centrifugation (1,200 rpm for five minutes, Tomy Seiko Co., Ltd.) to produce a chondrocyte pellet. The supernatant was discarded, and the cells were placed in a 1.2% sodium alginate solution (25 mmol/L HEPES/150 mmol/L sodium chloride solution, pH7.0) at 2×10^6 cells/mL. This was drawn into a 1-mL syringe (Terumo Corporation) equipped with a 22G injection needle, five drops were added to each well of a 24-well plate (Corning Japan K.K.) containing 2 mL of 102 mmol/L aqueous CaCl2 solution, and this was left to stand for five minutes to form beads. Subsequently, this was washed three times with a 150 mmol/L sodium chloride solution and incubated for one day in Growth Medium, and the medium was exchanged with Basal Medium supplemented with 1% Growth supplement (Cell Applications Inc.). In this procedure, the following factors were added to the medium, and the cells were cultured for 13 days with three times of medium exchange performed per week.
On day 12 of culturing, ^35S-labeled sulfuric acid (PerkinElmer Japan Co., Ltd.) was added at 370 kBq/well, and the medium was collected 24 hours later into a test tube and stored at 4° C. To the alginate gel, a 55 mmol/L sodium citrate solution (Nacalai Tesque, Inc.; 1 mL/well) was added, and this was incubated at 37° C. for ten minutes for solation. This was collected into a microtube (Eppendorf AG) and then centrifuged (1,200 rpm, five minutes) to produce a chondrocyte pellet. […] The glass filter was transferred to a liquid scintillation counter vial, 5 mL of scintillator (Hionic-Fluor, PerkinElmer Japan Co., Ltd.) was added and radioactivity was measured on a liquid scintillation counter (TRI-CARB, PerkinElmer Japan Co., Ltd.).
The remaining 0.1 mL of the digested solution was used for DNA quantification. […]

Data set [2] deals with rat hepatocyte. Briefly: Metabolic stability using rat hepatocyte. It is filed as in vitro ADME. How it is done:
Liver cells were prepared from the liver of rats (SD, female) by a collagenase perfusion method. A compound of the Reference Examples or a Comparative Example was added, and this was incubated at 37° C. for a specified amount of time, followed by addition of a reaction-stopping solution. The concentration of the parent compound at each reaction time was measured using LC/MS/MS, and inherent clearance (μL/10^6 cells/min) was calculated from the slope of the reaction time versus residual rate.
• Cell concentration: 1×10^6 cells/mL • Compound concentration: 1 μM • Medium: Williams' medium E • Reaction time: 0, 15, 30, 60, 120, and 240 minutes • Reaction-stopping solution: acetonitrile/2-propanol (4/6, v/v)

Consider `Cc1cc(N2C(=O)NC(=O)C2(C)C)cc(C)c1CCS(=O)(=O)N1CCC2(CC1)N=C(c1ccc(OC(F)(F)F)cc1)NC2=O` [Compound 7, 1-(3,5-dimethyl-4-(2-((4-oxo-2-(4-(trifluoromethoxy)phenyl)-1,3,8-triazaspiro[4.5]deca-1-en-8-yl)sulfonyl)ethyl)phenyl)-5,5-dimethylimidazolidine-2,4-dione], for which the “radioactivity (proteoglycan synthesis, cpm/μg DNA) relative to the vehicle control” value is 10 fold in data set [1] (10^−5 mol/L) and 3 fold in data set [1] (10^−6 mol/L). Also, the “rat hepatocyte metabolic stability compared to Comparative Examples 1, 2, 3, 5, and 6 (in words)” value in data set [2] was “increased”.

The values above are taken from US9993462B2, “Hydantoin derivative-containing pharmaceutical composition” (Chugai Seiyaku Kabushiki Kaisha, priority 2014, dated 2018).
